Experimental data reported in patent publication US20220132847A1, “CINNOLINIUM COMPOUNDS FOR USE IN A METHOD OF CONTROLLING UNWANTED PLANT GROWTH” (SYNGENTA CROP PROTECTION AG, priority 2019, published 2022).

What was measured:
Assay in all cases: Post-emergence efficacy, glasshouse
Assay type in all cases: in vivo
Setaria faberi (SETFA) = details: Application Rate 1000 g/Ha, evaluated after 13 days, 100=total damage to plant, 0=no damage to plant; for pest or weed control at 1000 g/ha: Setaria faberi, post-emergence, 312 h, read-out: Control of weed species after post-emergence application, SETFA
Description: (§1) Seeds of a variety of test species were sown in standard soil in pots. After cultivation for 14 days (post-emergence) under controlled conditions in a glasshouse (at 24/16° C., day/night; 14 hours light; 65% humidity), the plants were sprayed with an aqueous spray solution derived from the dissolution of the technical active ingredient formula (I) in a small amount of acetone and a special solvent and emulsifier mixture referred to as IF50 (11.12% Emulsogen EL360™+44.44% N-methylpyrrolidone+44.44% Dowanol DPM glycol ether), to create a 50 g/l solution which was then diluted to required concentration using 0.25% or 1% Empicol ESC70 (Sodium lauryl ether sulphate)+1% ammonium sulphate in water as diluent.
(§2) The test plants were then grown in a glasshouse under controlled conditions (at 24/16° C., day/night; 14 hours light; 65% humidity) and watered twice daily. After 13 days the test was evaluated (100=total damage to plant; 0=no damage to plant).
(§3) Ipomoea hederacea (IPOHE), Euphorbia heterophylla (EPHHL), Chenopodium album (CHEAL), Amaranthus palmeri (AMAPA), Lolium perenne (LOLPE), Digitaria sanguinalis (DIGSA), Eleusine indica (ELEIN), Echinochloa crus-galli (ECHCG), Setaria faberi (SETFA)

[1] = test system: Euphorbia heterophylla (EPHHL); details: Application Rate 1000 g/Ha, evaluated after 13 days, 100=total damage to plant, 0=no damage to plant; for pest or weed control at 1000 g/ha: Euphorbia heterophylla, post-emergence, 312 h, read-out: Control of weed species after post-emergence application, EPHHL
Description: as §1, §2, §3

[2] = test system: Digitaria sanguinalis (DIGSA); details: Application Rate 1000 g/Ha, evaluated after 13 days, 100=total damage to plant, 0=no damage to plant; for pest or weed control at 1000 g/ha: Digitaria sanguinalis, post-emergence, 312 h, read-out: Control of weed species after post-emergence application, DIGSA
Description: as §1, §2, §3

Eleusine indica (ELEIN) = details: Application Rate 1000 g/Ha, evaluated after 13 days, 100=total damage to plant, 0=no damage to plant; for pest or weed control at 1000 g/ha: Eleusine indica, post-emergence, 312 h, read-out: Control of weed species after post-emergence application, ELEIN
Description: as §1, §2, §3

Lolium perenne (LOLPE) = details: Application Rate 1000 g/Ha, evaluated after 13 days, 100=total damage to plant, 0=no damage to plant; for pest or weed control at 1000 g/ha: Lolium perenne, post-emergence, 312 h, read-out: Control of weed species after post-emergence application, LOLPE
Description: as §1, §2, §3

[3] = test system: Amaranthus palmeri (AMAPA); details: Application Rate 1000 g/Ha, evaluated after 13 days, 100=total damage to plant, 0=no damage to plant; for pest or weed control at 1000 g/ha: Amaranthus palmeri, post-emergence, 312 h, read-out: Control of weed species after post-emergence application, AMAPA
Description: as §1, §2, §3

[4] = test system: Echinochloa crus-galli (ECHCG); details: Application Rate 1000 g/Ha, evaluated after 13 days, 100=total damage to plant, 0=no damage to plant; for pest or weed control at 1000 g/ha: Echinochloa crus-galli, post-emergence, 312 h, read-out: Control of weed species after post-emergence application, ECHCG
Description: as §1, §2, §3

[5] = test system: Chenopodium album (CHEAL); details: Application Rate 1000 g/Ha, evaluated after 13 days, 100=total damage to plant, 0=no damage to plant; for pest or weed control at 1000 g/ha: Chenopodium album, post-emergence, 312 h, read-out: Control of weed species after post-emergence application, CHEAL
Description: as §1, §2, §3

[6] = test system: Ipomoea hederacea (IPOHE); details: Application Rate 1000 g/Ha, evaluated after 13 days, 100=total damage to plant, 0=no damage to plant; for pest or weed control at 1000 g/ha: Ipomoea hederacea, post-emergence, 312 h, read-out: Control of weed species after post-emergence application, IPOHE
Description: as §1, §2, §3

Row | Molecule | pest or weed control at 1000 g/ha (Setaria faberi (SETFA)) | pest or weed control at 1000 g/ha [1] | pest or weed control at 1000 g/ha [2] | pest or weed control at 1000 g/ha (Eleusine indica (ELEIN)) | pest or weed control at 1000 g/ha (Lolium perenne (LOLPE)) | pest or weed control at 1000 g/ha [3] | pest or weed control at 1000 g/ha [4] | pest or weed control at 1000 g/ha [5] | pest or weed control at 1000 g/ha [6] | Control of weed species after post-emergence application, SETFA (Setaria faberi (SETFA)) | Control of weed species after post-emergence application, EPHHL [1] | Control of weed species after post-emergence application, DIGSA [2] | Control of weed species after post-emergence application, ELEIN (Eleusine indica (ELEIN)) | Control of weed species after post-emergence application, LOLPE (Lolium perenne (LOLPE)) | Control of weed species after post-emergence application, AMAPA [3] | Control of weed species after post-emergence application, ECHCG [4] | Control of weed species after post-emergence application, CHEAL [5] | Control of weed species after post-emergence application, IPOHE [6]
1 | O=P([O-])(O)c1c[n+](CCO)nc2ccccc12 [Compound A67, hydroxy-[2-(2-hydroxyethyl)cinnolin-2-ium-4-yl]phosphinate] | 50% | 30% | 90% | 10% | 0% | 30% | 20% | 60% | 30% |  |  |  |  |  |  |  |  | 
2 | CCCC[n+]1cc(C(=O)[N-]S(C)(=O)=O)c2ccccc2n1 [Compound A41] | 40% | 100% | 40% | 30% | 30% | 80% | 20% | 60% | 80% |  |  |  |  |  |  |  |  | 
3 | COC(=O)c1c[n+](C)nc2ccccc12 [Compound A2] | 60% | 70% | 60% | 70% | 30% | 100% | 30% | 70% | 70% |  |  |  |  |  |  |  |  | 
4 | CCOP(=O)(Cc1c[n+](C)nc2ccccc12)OCC.[I-] [Compound A47, 4-(diethoxyphosphorylmethyl)-2-methyl-cinnolin-2-ium iodide] |  |  |  |  |  |  |  |  |  | 40 | 30 | 40 | 50 | 10 | 60 | 30 | 70 | 20
5 | ethoxy-[(2-methylcinnolin-2-ium-4-yl)methyl]phosphinic acid [Compound A51] |  |  |  |  |  |  |  |  |  | 90 | 90 | 90 | 80 | 20 | 90 | 70 | 60 | 60
6 | O=P(O)(O)CCCc1c[n+](CCCP(=O)(O)O)nc2ccccc12 [Compound A82, 3-[2-(3-phosphonopropyl)cinnolin-2-ium-4-yl]propylphosphonic acid chloride] | 0% | 20% | 10% | 10% | 10% | 30% | 20% | 0% | 10% |  |  |  |  |  |  |  |  | 
7 | C[n+]1cc(P(C)(=O)O)c2ccccc2n1 [Compound A31] | 90% | 100% | 100% | 100% | 70% | 100% | 60% | 80% | 90% |  |  |  |  |  |  |  |  | 
8 | Cn1ncnc1NC(=O)c1c[n+](C)nc2ccccc12 [Compound A25, 2-methyl-N-(2-methyl-1,2,4-triazol-3-yl)cinnolin-2-ium-4-carboxamide iodide] | 20% | 20% | 10% | 10% | 10% | 50% | 10% | 50% | 30% |  |  |  |  |  |  |  |  | 
